Like-named read-outs stand apart in the source and are kept apart here.
How the values were obtained:
μ-opioid receptor [1] = target: T1, μ-opioid receptor (Homo sapiens, UniProt P35372); assay: μ-opioid receptor [35S]GTPγS functional assay, HEK-293 or CHO cells; settings: for Emax: read-out: GTPγS μ Emax
κ opioid receptor [2] = target: T2, κ opioid receptor (Homo sapiens, UniProt P41145); assay: κ-opioid receptor [35S]GTPγS functional assay, HEK-293 or CHO cells; assay type: biochemical; design: expressed in transfected cells; host or cells: U-2 OS (in-house membranes); settings: for Emax: relative to U69,593
T2 sequence (P41145 whole entry): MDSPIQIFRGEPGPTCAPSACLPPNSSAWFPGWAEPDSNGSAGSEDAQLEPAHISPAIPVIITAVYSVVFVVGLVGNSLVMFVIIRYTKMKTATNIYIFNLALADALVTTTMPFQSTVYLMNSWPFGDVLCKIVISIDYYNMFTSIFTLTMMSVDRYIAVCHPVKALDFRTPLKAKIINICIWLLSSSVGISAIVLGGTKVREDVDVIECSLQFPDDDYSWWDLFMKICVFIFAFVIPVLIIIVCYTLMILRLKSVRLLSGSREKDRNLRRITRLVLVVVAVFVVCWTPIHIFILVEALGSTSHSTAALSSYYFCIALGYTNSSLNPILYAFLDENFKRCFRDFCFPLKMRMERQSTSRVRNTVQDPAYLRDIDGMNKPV
Protocol: Membranes from recombinant HEK-293 cells, CHO or U-2 OS cells expressing the recombinant human κ opioid receptor (κ) were prepared by lysing cells in ice cold hypotonic buffer (2.5 mM MgCl2, 50 mM HEPES, pH 7.4) (10 mL/10 cm dish) followed by homogenization with a tissue grinder/Teflon pestle. Membranes from a cell line naturally expressing kappa opioid receptors can also be used. Membranes were collected by centrifugation at 30,000×g for 15 min at 4° C. and pellets were resuspended in hypotonic buffer to a final concentration of 1-3 mg/mL. Protein concentrations were determined using the BioRad protein assay reagent with bovine serum albumen as standard. Aliquots of κ receptor membranes were stored at −80° C.
Plates were incubated for 30 min at a temperature of about 25° C. with shaking.

κ opioid receptor [3] = target: T2, κ opioid receptor; assay: biochemical; assay type: binding; design: expressed in transfected cells; host or cells: HEK 293 (in-house membrane prep); settings: HEK-293 or CHO cells
μ-opioid receptor [4] = target: T1, μ-opioid receptor; assay: μ-opioid receptor radioligand dose-displacement binding assay ([3H]-diprenorphine); design: expressed in transfected cells; host or cells: HEK-293 or CHO
Protocol: Radioligand dose-displacement binding assays for μ-opioid receptors used 0.3 nM [^3H]-diprenorphine (Perkin Elmer, Shelton, Conn.), with […] membrane protein/well in a final volume of 500 μl binding buffer (10 mM MgCl2, 1 mM EDTA, 5% DMSO, 50 mM HEPES, pH 7.4). Reactions were carried out in the absence or presence of increasing concentrations of unlabeled naloxone. All reactions were conducted in 96-deep well polypropylene plates for 2 hr at room temperature. […] The data were analyzed using the one-site competition curve fitting functions in GraphPad PRISM™ v. 3.0 or higher (San Diego, Calif.), or an in-house function for one-site competition curve-fitting.

μ-opioid receptor [5] = target: T1, μ-opioid receptor; assay: μ-opioid receptor [35S]GTPγS functional assay, U-2 OS cells; assay type: biochemical; design: expressed in transfected cells; host or cells: U-2 OS; settings: for Emax: relative to DAMGO, read-out: GTPγS μ Emax
κ opioid receptor [6] = target: T2, κ opioid receptor; assay: κ-opioid receptor [35S]GTPγS functional assay, U-2 OS cells; assay type: biochemical; design: expressed in transfected cells; host or cells: U-2 OS (in-house membranes); settings: U-2 OS cells
Protocol: Membranes from recombinant HEK-293 cells, CHO or U-2 OS cells expressing the recombinant human κ opioid receptor (κ) were prepared by lysing cells in ice cold hypotonic buffer (2.5 mM MgCl2, 50 mM HEPES, pH 7.4) (10 mL/10 cm dish) followed by homogenization with a tissue grinder/Teflon pestle. […] Membranes were collected by centrifugation at 30,000×g for 15 min at 4° C. and pellets were resuspended in hypotonic buffer to a final concentration of 1-3 mg/mL. Protein concentrations were determined using the BioRad protein assay reagent with bovine serum albumen as standard. Aliquots of κ receptor membranes were stored at −80° C.

[7] = HEK-293 or CHO cells, read-out: GTPγS κ EC50
[8] = HEK-293 or CHO cells, read-out: Ki Opioid Receptor μ
[9] = HEK-293 or CHO cells, bound in μM, read-out: GTPγS κ EC50
[10] = U-2 OS cells, read-out: GTPγS μ EC50

T1 sequence (P35372 whole entry, species assumed): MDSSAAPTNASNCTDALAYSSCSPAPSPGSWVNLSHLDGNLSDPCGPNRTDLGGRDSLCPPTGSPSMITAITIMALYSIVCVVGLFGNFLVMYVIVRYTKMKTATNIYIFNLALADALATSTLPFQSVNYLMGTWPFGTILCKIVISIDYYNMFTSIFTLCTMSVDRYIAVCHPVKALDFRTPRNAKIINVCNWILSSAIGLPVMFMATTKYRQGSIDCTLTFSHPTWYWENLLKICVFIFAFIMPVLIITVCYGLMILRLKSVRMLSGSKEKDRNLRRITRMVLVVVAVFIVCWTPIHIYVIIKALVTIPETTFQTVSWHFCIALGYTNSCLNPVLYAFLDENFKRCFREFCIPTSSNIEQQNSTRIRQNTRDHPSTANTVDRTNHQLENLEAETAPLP

SMILES	EC50 (μ-opioid receptor [1]) [nM]	Emax (μ-opioid receptor [1]) [%]	Emax (κ opioid receptor [2]; HEK-293 or CHO cells) [%]	Ki (κ opioid receptor [3]) [µM]	Ki (μ-opioid receptor [4]) [nM]	EC50 (μ-opioid receptor [5]; [10]) [µM]	Emax (μ-opioid receptor [5]; U-2 OS cells) [%]	further results
COc1ccc2c(c1)[C@@]1(C)CCN(CC3CC3)C(C2)C1N(C)C(=O)/C=C/c1ccoc1 (stereo in doubt) [Compound 57, (E)-N-((2R,6R,11S)-3-(cyclopropylmethyl)-8-methoxy-6-methyl-1,2,3,4,5,6-hexahydro-2,6-methanobenzo[d]azocin-11-yl)-3-(furan-3-yl)-N-methylacrylamide]	315 ± 47.9	112 ± 7.22	85.7 ± 3.93	0.00461 ± 0.00143				EC50 (κ opioid receptor [2]; [7]): 0.351 ± 0.115 µM; Ki (μ-opioid receptor [4]; [8]): 236 ± 70.2 nM
COc1ccc2c(c1)C1(C)CCN(C)C(C2)C1=NOCC(=O)O (stereo not shown) [Compound 1, 2-(((8-methoxy-3,6-dimethyl-1,2,3,4,5,6-hexahydro-2,6-methanobenzo[d]azocin-11-ylidene)amino)oxy)acetic Acid]				12.1	> 20000			
COc1ccc2c(c1)C1(C)CCN(C)C(C2)C1=NO (stereo not shown) [Compound 2, 8-methoxy-3,6-dimethyl-1,2,3,4,5,6-hexahydro-2,6-methanobenzo[d]azocin-11-one Oxime]				2.58 ± 0.122	> 20000			
COc1ccc2c(c1)[C@@]1(C)CCN(C)C(C2)[C@@H]1OCC(N)=O [Compound 3, 2-(((6R,11R)-8-methoxy-3,6-dimethyl-1,2,3,4,5,6-hexahydro-2,6-methanobenzo[d]azocin-11-yl)oxy)acetamide]					> 20000			Ki (κ opioid receptor [3]; bound in μM): > 20 µM
COc1ccc2c(c1)[C@@]1(C)CCN(C)C(C2)[C@H]1OCC(N)=O [Compound 4, 2-(((6R,11S)-8-methoxy-3,6-dimethyl-1,2,3,4,5,6-hexahydro-2,6-methanobenzo[d]azocin-11-yl)oxy)acetamide]					> 20000			Ki (κ opioid receptor [3]; bound in μM): > 20 µM
CCN(CC)CCON=C1C2Cc3ccc(OC)cc3C1(C)CCN2C (stereo not shown) [Compound 5, 8-methoxy-3,6-dimethyl-1,2,3,4,5,6-hexahydro-2,6-methanobenzo[d]azocin-11-one O-(2-(diethylamino)ethyl)oxime]				10.7	> 20000			
CCC=C1C2Cc3ccc(OC)cc3C1(C)CCN2C (stereo not shown) [Compound 6, 8-methoxy-3,6-dimethyl-11-propylidene-1,2,3,4,5,6-hexahydro-2,6-methanobenzo[d]azocine]				3.16 ± 1.24	> 20000			
CN1CC[C@@]2(C)c3cc(O)ccc3C[C@@H]1[C@@H]2N(C)CC1CCN(C(=O)OC(C)(C)C)CC1 [Compound 31, tert-butyl 4-((((2R,6S,11R)-8-hydroxy-3,6-dimethyl-1,2,3,4,5,6-hexahydro-2,6-methanobenzo[d]azocin-11-yl)(methyl)amino)methyl)piperidine-1-carboxylate]	12.3 ± 0.95	61 ± 3	1	0.00034 ± 9e-05		0.00041 ± 0.00038	94.3 ± 3.18	EC50 (κ opioid receptor [2]; [9]): > 20 µM
CN1CC[C@]2(C)c3cc(O)ccc3C[C@@H]1[C@@H]2N(C)C(=O)c1ccccc1 [Compound 39, N-((2R,6R,11R)-8-hydroxy-3,6-dimethyl-1,2,3,4,5,6-hexahydro-2,6-methanobenzo[d]azocin-11-yl)-N-methylbenzamide]	321 ± 22.2	89.8 ± 5.39	-1	0.082 ± 0.0104		0.0183 ± 0.00122	101 ± 3.76	EC50 (κ opioid receptor [2]; [9]): > 20 µM
CN1CC[C@]2(C)c3cc(O)ccc3C[C@@H]1[C@H]2Nc1ccc(CCS(N)(=O)=O)cc1 [Compound 50, 2-(4-(((2R,6R,11S)-8-hydroxy-3,6-dimethyl-1,2,3,4,5,6-hexahydro-2,6-methanobenzo[d]azocin-11-yl)amino)phenyl)ethanesulfonamide]	189 ± 13.7	93.8 ± 2.17		0.0583 ± 0.0101		0.042 ± 0.0109	86.5 ± 4.14	EC50 (κ opioid receptor [2]; [9]): > 20 µM; EC50 (κ opioid receptor [6]; bound in μM, read-out: GTPγS κ EC50): > 20 µM; Emax (κ opioid receptor [6]; relative to U69,593, read-out: GTPγS κ Emax): 9.78 ± 2.97%
COc1ccc2c(c1)[C@@]1(C)CCN(C)C(C2)C1N1CCCC(C(=O)O)C1 (stereo partly drawn) [Compound 74, 1-((6R)-8-methoxy-3,6-dimethyl-1,2,3,4,5,6-hexahydro-2,6-methanobenzo[d]azocin-11-yl)piperidine-3-carboxylic acid]	639 ± 147	31.7 ± 0.67	53 ± 2.31	0.0241 ± 0.00593	230 ± 43.8			EC50 (κ opioid receptor [2]): 0.637 ± 0.0651 µM
COc1ccc2c(c1)[C@@]1(C)CCN(C)C(C2)[C@@H]1CNC(=O)Cc1ccc(Cl)c(Cl)c1 [Compound 75, 2-(3,4-dichlorophenyl)-N-(((6S,11S)-8-methoxy-3,6-dimethyl-1,2,3,4,5,6-hexahydro-2,6-methanobenzo[d]azocin-11-yl)methyl)acetamide]	62.3 ± 13.7	112 ± 2.4	0.33 ± 0.67	0.185 ± 0.0513			104 ± 2.67	EC50 (κ opioid receptor [2]): > 20 µM; EC50 (μ-opioid receptor [5]; GTPγS μ EC50, U-2 OS cells): 0.0127 ± 0.00152 µM
CN(C(=O)/C=C/c1ccoc1)[C@@H]1[C@H]2Cc3ccc(O)cc3[C@@]1(C)CCN2CC1CC1 [Compound 77, (E)-N-((2R,6R,11S)-3-(cyclopropylmethyl)-8-hydroxy-6-methyl-1,2,3,4,5,6-hexahydro-2,6-methanobenzo[d]azocin-11-yl)-3-(furan-3-yl)-N-methylacrylamide]	144 ± 11	56.5 ± 2.02	-1	0.0043 ± 0.00091			77.7 ± 0.88	EC50 (κ opioid receptor [2]): > 20 µM; EC50 (μ-opioid receptor [5]; GTPγS μ EC50, U-2 OS cells): 0.029 ± 0.00086 µM
CN(C(=O)Nc1ccc(C#N)cc1)[C@H]1C2Cc3ccc(O)cc3[C@@]1(C)CCN2CC1CC1 [Compound 80, 3-(4-cyanophenyl)-1-((6R,11R)-3-(cyclopropylmethyl)-8-hydroxy-6-methyl-1,2,3,4,5,6-hexahydro-2,6-methanobenzo[d]azocin-11-yl)-1-methylurea]	216 ± 38.7	92.4 ± 3.23		0.00119 ± 0.00032		0.0002 ± 1.3e-05	113 ± 3.53	EC50 (κ opioid receptor [2]; [9]): > 20 µM
CN(C(=O)/C=C/c1ccoc1)[C@H]1C2Cc3ccc(O)cc3[C@@]1(C)CCN2CC1CC1 [Compound 83, (E)-N-((6R,11R)-3-(cyclopropylmethyl)-8-hydroxy-6-methyl-1,2,3,4,5,6-hexahydro-2,6-methanobenzo[d]azocin-11-yl)-3-(furan-3-yl)-N-methylacrylamide]	10.6 ± 1.18	92.7 ± 5.21	77.7 ± 1.76	0.00015 ± 2e-05				EC50 (κ opioid receptor [2]; [7]): 0.00267 ± 0.00084 µM; Ki (μ-opioid receptor [4]; [8]): 1.78 ± 0.38 nM
CN(C(=O)Nc1ccc(C#N)cc1)[C@H]1C2Cc3ccc(O)cc3[C@@]1(C)CCN2CC1CCC1 [Compound 88, 3-(4-cyanophenyl)-1-((6R,11R)-3-(cyclobutylmethyl)-8-hydroxy-6-methyl-1,2,3,4,5,6-hexahydro-2,6-methanobenzo[d]azocin-11-yl)-1-methylurea]	7.58 ± 1.06	74.7 ± 1.86	18.5 ± 2.84	0.00474 ± 0.00155		0.00167 ± 0.00016	85.7 ± 2.33	EC50 (κ opioid receptor [2]; [7]): 0.0247 ± 0.00535 µM
CN(C(=O)Nc1ccc(C#N)cc1)[C@H]1C2Cc3ccc(O)cc3[C@@]1(C)CCN2Cc1cccc(F)c1F [Compound 89, 3-(4-cyanophenyl)-1-((6R,11R)-3-(2,3-difluorobenzyl)-8-hydroxy-6-methyl-1,2,3,4,5,6-hexahydro-2,6-methanobenzo[d]azocin-11-yl)-1-methylurea]	> 20000			0.0092 ± 0.0009			1.17 ± 1.01	EC50 (κ opioid receptor [2]; [9]): > 20 µM; EC50 (μ-opioid receptor [5]; U-2 OS cells, bound in μM, read-out: GTPγS μ EC50): > 20 µM
CN1CC[C@]2(C)c3cc(O)ccc3CC1[C@@H]2N1Cc2ccccc2NC1=O [Compound 91]	409 ± 19.5	89.7 ± 5.9	34.7 ± 5.93	0.174 ± 0.0257		0.378 ± 0.0619	71.3 ± 3.53	EC50 (κ opioid receptor [2]; [7]): 2.81 ± 0.129 µM

— patent US10138207B2, “Benzomorphan analogs and the use thereof” (priority 2012, dated 2018)
